In this assay the test system is quiescent MuSCs. In words: Q-RT-PCR screening of candidate molecules for promotion of MuSC quiescence. Type of assay: cell-based, mouse. To be noted: 500 quiescent MuSCs cultured 2.5 days with the molecule; gene expression signature. The text has this:
FIG. 8. Screening of molecules titrated at different concentrations. Heat map analysis of gene expression profiles obtained from MuSCs cultured in different concentrations of candidate molecules. In 96 well plates, 500 MuSCs were directly isolated by FACS and cultured in the presence of the candidate molecules titrated at different concentrations. After 2.5 days, cells were collected for combinatorial Q-RT-PCR to screen for the conditions that result mostly closely resemble freshly isolated MuSCs based on the gene expression profiles. A heat map for absolute deviations from expression levels of freshly isolated quiescent MuSCs (QSC) is shown. On the X axis, the molecules tested and the different dilutions employed from the working concentrations are indicated as in FIG. 16. On the Y axis the names of the genes that were tested are listed. The gene names were organized in general functional groups. Each functional group is based on the main function and role in MuSCs.
Knowing that quiescent MuSCs have a unique transcriptional signature, we employed combinatorial QRT-PCR to screen for molecules that, when added to the medium, would promote MuSC quiescence. […]
Single Cell Q-RT-PCR. […] Biomark data was analyzed using Q-RT-PCR Analysis software (Fluidigm). […] For each amplicon, a limit of detection (LOD) was determined by running 10-fold serial dilutions of embryonic cDNA in 6 replicates. […]

The results in this text go back to US20200268804A1, “METHODS AND COMPOSITIONS TO MAINTAIN STEM CELL QUIESCENCE” (The Board of Trustees of the Leland Stanford Junior …, priority 2016, published 2020).

Turning to `Nc1nc(Nc2ccc(S(N)(=O)=O)cc2)nn1C(=O)c1c(F)cccc1F` [JMJ-7706621], the quiescence-promoting activity result is reported as “novel quiescence-promoting activity”.
